Measurements taken from patent US8680012B2, “4-phenyl-pyrane-3,5-diones,4-phenyl-thiopyrane-3,6-diones and cyclohexanetriones as novel herbicides” (Syngenta Crop Protection LLC, priority 2006, dated 2014).

What was measured:
Assay type in all cases: in vivo
[1] = test system: Alopecurus myosuroides (ALOMY); experiment: Example A pre-emergence herbicidal activity, glasshouse pot test; conditions: 480 h, rate 250 g/ha, evaluated 20 days after spraying, read-out: Pre-emergence activity ALOMY (100=total damage to plant; 0=no damage to plant)
Method: (§1) Seeds of a variety of test species were sown in standard soil in pots. After cultivation for one day (pre-emergence) or after 10 days cultivation (post-emergence) under controlled conditions in a glasshouse, the plants were sprayed with an aqueous spray solution derived from the formulation of the technical active ingredient in 0.6 ml acetone and 45 ml formulation solution containing 10.6% Emulsogen EL (Registry number 61791-12-6), 42.2% N-methylpyrrolidone, 42.2% dipropylene glycol monomethyl ether (Registry number 34590-94-8) and 0.2% X-77 (Registry number 11097-66-8). The test plants were then grown in a greenhouse under optimum conditions until, 15 days later for post-emergence and 20 days for pre-emergence, the test was evaluated (100=total damage to plant; 0=no damage to plant).
(§2) Alopecurus myosuroides (ALOMY), Avena fatua (AVEFA), Lolium perenne (LOLPE), Setaria faberi (SETFA), Digitaria sanguinalis (DIGSA), Echinochloa crus-galli (ECHCG)

Avena fatua (AVEFA) [2] = experiment: as above; conditions: 480 h, rate 250 g/ha, evaluated 20 days after spraying, read-out: Pre-emergence activity AVEFA (100=total damage to plant; 0=no damage to plant)
Method: as §1, §2

[3] = test system: Digitaria sanguinalis (DIGSA); experiment: as above; conditions: 480 h, rate 250 g/ha, evaluated 20 days after spraying, read-out: Pre-emergence activity DIGSA (100=total damage to plant; 0=no damage to plant)
Method: as §1, §2

[4] = test system: Echinochloa crus-galli (ECHCG); experiment: as above; conditions: 480 h, rate 250 g/ha, evaluated 20 days after spraying, read-out: Pre-emergence activity ECHCG (100=total damage to plant; 0=no damage to plant)
Method: as §1, §2

Lolium perenne (LOLPE) [5] = experiment: as above; conditions: 480 h, rate 250 g/ha, evaluated 20 days after spraying, read-out: Pre-emergence activity LOLPE (100=total damage to plant; 0=no damage to plant)
Method: as §1, §2

Setaria faberi (SETFA) [6] = experiment: as above; conditions: 480 h, rate 250 g/ha, evaluated 20 days after spraying, read-out: Pre-emergence activity SETFA (100=total damage to plant; 0=no damage to plant)
Method: as §1, §2

[7] = test system: Alopecurus myosuroides (ALOMY); experiment: Example A post-emergence herbicidal activity, glasshouse pot test; conditions: 360 h, rate 125 g/ha, evaluated 15 days after spraying, read-out: Post-emergence activity ALOMY (100=total damage to plant; 0=no damage to plant)
Method: as §1, §2

Avena fatua (AVEFA) [8] = experiment: as above; conditions: 360 h, rate 125 g/ha, evaluated 15 days after spraying, read-out: Post-emergence activity AVEFA (100=total damage to plant; 0=no damage to plant)
Method: as §1, §2

[9] = test system: Digitaria sanguinalis (DIGSA); experiment: as above; conditions: 360 h, rate 125 g/ha, evaluated 15 days after spraying, read-out: Post-emergence activity DIGSA (100=total damage to plant; 0=no damage to plant)
Method: as §1, §2

[10] = test system: Echinochloa crus-galli (ECHCG); experiment: as above; conditions: 360 h, rate 125 g/ha, evaluated 15 days after spraying, read-out: Post-emergence activity ECHCG (100=total damage to plant; 0=no damage to plant)
Method: as §1, §2

Lolium perenne (LOLPE) [11] = experiment: as above; conditions: 360 h, rate 125 g/ha, evaluated 15 days after spraying, read-out: Post-emergence activity LOLPE (100=total damage to plant; 0=no damage to plant)
Method: as §1, §2

Setaria faberi (SETFA) [12] = experiment: as above; conditions: 360 h, rate 125 g/ha, evaluated 15 days after spraying, read-out: Post-emergence activity SETFA (100=total damage to plant; 0=no damage to plant)
Method: as §1, §2

In the case of `CCc1ccc(-c2ccc(Cl)cc2Cl)cc1C1=C(O)C(C)(C)OC(C)(C)C1=O` [Compound A-45], the pest or weed control at 250 g/ha [1] is reported as 50%, the pest or weed control at 250 g/ha (Avena fatua (AVEFA) [2]) is reported as 50% and the pest or weed control at 250 g/ha [3] is reported as 100%. For the same compound, the pest or weed control at 250 g/ha [4] was 70%, the pest or weed control at 250 g/ha (Lolium perenne (LOLPE) [5]) was 80% and the pest or weed control at 250 g/ha (Setaria faberi (SETFA) [6]) was 90%. The pest or weed control at 125 g/ha [7] was 20%, the pest or weed control at 125 g/ha (Avena fatua (AVEFA) [8]) was 70% and the pest or weed control at 125 g/ha [9] was 100%. For the same compound, the pest or weed control at 125 g/ha [10] was 100%, the pest or weed control at 125 g/ha (Lolium perenne (LOLPE) [11]) was 70% and the pest or weed control at 125 g/ha (Setaria faberi (SETFA) [12]) was 80%.
`Cc1ccc(-c2ccc(Cl)c(F)c2)cc1C1=C(O)C(C)(C)OC(C)(C)C1=O` [Compound A-47] gave a pest or weed control at 250 g/ha [1] of 30%, a pest or weed control at 250 g/ha (Avena fatua (AVEFA) [2]) of 20% and a pest or weed control at 250 g/ha [3] of 70%. For the same compound, the pest or weed control at 250 g/ha [4] was 70%, the pest or weed control at 250 g/ha (Lolium perenne (LOLPE) [5]) was 30% and the pest or weed control at 250 g/ha (Setaria faberi (SETFA) [6]) was 60%. For the same compound, the pest or weed control at 125 g/ha [7] was 90%, the pest or weed control at 125 g/ha (Avena fatua (AVEFA) [8]) was 90% and the pest or weed control at 125 g/ha [9] was 80%. It also gave a pest or weed control at 125 g/ha [10] of 100%, a pest or weed control at 125 g/ha (Lolium perenne (LOLPE) [11]) of 70% and a pest or weed control at 125 g/ha (Setaria faberi (SETFA) [12]) of 50%.
Compound `Cc1ccc(-c2ccc(Cl)c(Cl)c2)cc1C1=C(O)C(C)(C)OC(C)(C)C1=O` [Compound A-48] has a pest or weed control at 250 g/ha [1] of 30%, a pest or weed control at 250 g/ha (Avena fatua (AVEFA) [2]) of 10% and a pest or weed control at 250 g/ha [3] of 60%. For the same compound, the pest or weed control at 250 g/ha [4] was 100%, the pest or weed control at 250 g/ha (Lolium perenne (LOLPE) [5]) was 0% and the pest or weed control at 250 g/ha (Setaria faberi (SETFA) [6]) was 60%. It also gave a pest or weed control at 125 g/ha [7] of 70%, a pest or weed control at 125 g/ha (Avena fatua (AVEFA) [8]) of 40% and a pest or weed control at 125 g/ha [9] of 40%. The pest or weed control at 125 g/ha [10] was 40%, the pest or weed control at 125 g/ha (Lolium perenne (LOLPE) [11]) was 0% and the pest or weed control at 125 g/ha (Setaria faberi (SETFA) [12]) was 40%.
For `Cc1ccc(-c2ccc(Cl)cc2Cl)cc1C1=C(O)C(C)(C)OC(C)(C)C1=O` [Compound A-49], the pest or weed control at 250 g/ha [1] was 0%, the pest or weed control at 250 g/ha (Avena fatua (AVEFA) [2]) was 20% and the pest or weed control at 250 g/ha [3] was 50%. It also gave a pest or weed control at 250 g/ha [4] of 100%, a pest or weed control at 250 g/ha (Lolium perenne (LOLPE) [5]) of 20% and a pest or weed control at 250 g/ha (Setaria faberi (SETFA) [6]) of 50%. The pest or weed control at 125 g/ha [7] was 50%, the pest or weed control at 125 g/ha (Avena fatua (AVEFA) [8]) was 70% and the pest or weed control at 125 g/ha [9] was 70%. It also gave a pest or weed control at 125 g/ha [10] of 80%, a pest or weed control at 125 g/ha (Lolium perenne (LOLPE) [11]) of 80% and a pest or weed control at 125 g/ha (Setaria faberi (SETFA) [12]) of 50%.
For `Cc1ccc(-c2ccc(Cl)cc2C)cc1C1=C(O)C(C)(C)OC(C)(C)C1=O` [Compound A-51], the pest or weed control at 250 g/ha [1] was 0%, the pest or weed control at 250 g/ha (Avena fatua (AVEFA) [2]) was 0% and the pest or weed control at 250 g/ha [3] was 50%. For the same compound, the pest or weed control at 250 g/ha [4] was 50%, the pest or weed control at 250 g/ha (Lolium perenne (LOLPE) [5]) was 40% and the pest or weed control at 250 g/ha (Setaria faberi (SETFA) [6]) was 10%. The pest or weed control at 125 g/ha [7] was 10%, the pest or weed control at 125 g/ha (Avena fatua (AVEFA) [8]) was 20% and the pest or weed control at 125 g/ha [9] was 60%. The pest or weed control at 125 g/ha [10] was 80%, the pest or weed control at 125 g/ha (Lolium perenne (LOLPE) [11]) was 0% and the pest or weed control at 125 g/ha (Setaria faberi (SETFA) [12]) was 40%.
With `Cc1ccc(-c2ccc(Cl)c(C(F)(F)F)c2)cc1C1=C(O)C(C)(C)OC(C)(C)C1=O` [Compound A-52] the pest or weed control at 250 g/ha [1] was 0%, the pest or weed control at 250 g/ha (Avena fatua (AVEFA) [2]) was 0% and the pest or weed control at 250 g/ha [3] was 100%. For the same compound, the pest or weed control at 250 g/ha [4] was 70%, the pest or weed control at 250 g/ha (Lolium perenne (LOLPE) [5]) was 10% and the pest or weed control at 250 g/ha (Setaria faberi (SETFA) [6]) was 80%. It also gave a pest or weed control at 125 g/ha [7] of 90%, a pest or weed control at 125 g/ha (Avena fatua (AVEFA) [8]) of 70% and a pest or weed control at 125 g/ha [9] of 70%. The pest or weed control at 125 g/ha [10] was 90%, the pest or weed control at 125 g/ha (Lolium perenne (LOLPE) [11]) was 30% and the pest or weed control at 125 g/ha (Setaria faberi (SETFA) [12]) was 60%.
`Cc1cc(-c2ccc(C)c(C3=C(O)C(C)(C)OC(C)(C)C3=O)c2)ccc1Cl` [Compound A-53] gave a pest or weed control at 250 g/ha [1] of 10%, a pest or weed control at 250 g/ha (Avena fatua (AVEFA) [2]) of 0% and a pest or weed control at 250 g/ha [3] of 60%. It also gave a pest or weed control at 250 g/ha [4] of 10%, a pest or weed control at 250 g/ha (Lolium perenne (LOLPE) [5]) of 0% and a pest or weed control at 250 g/ha (Setaria faberi (SETFA) [6]) of 10%. For the same compound, the pest or weed control at 125 g/ha [7] was 30%, the pest or weed control at 125 g/ha (Avena fatua (AVEFA) [8]) was 10% and the pest or weed control at 125 g/ha [9] was 50%. The pest or weed control at 125 g/ha [10] was 90%, the pest or weed control at 125 g/ha (Lolium perenne (LOLPE) [11]) was 10% and the pest or weed control at 125 g/ha (Setaria faberi (SETFA) [12]) was 0%.
